Measured values as given in article PMC5059489, “Mechanistic evaluation and transcriptional signature of a glutathione S-transferase omega 1 inhibitor” (Nature Communications, 2016).
Where two headings read alike, the source gives them in different places.

Tests used:
BxPC3 = assay: MTT cytotoxicity GI50, BxPC3; type: cell-based
Method: (§1) Cell proliferation was assessed by a MTT assay. Cancer cells were seeded in 96-well microtitre plates and, after overnight attachment, treated with GSTO1 inhibitors. After 72 h, MTT solution (3 mg ml^−1; 20 μl) was added to each well and cells were incubated for 3 h at 37 °C. After incubation, media from each well was removed and the dark blue formazan crystals formed by live cells were dissolved in DMSO (150 μl per well). The absorbance intensity was measured at 570 nm on a microplate reader (Molecular Devices, Sunnyvale, CA, USA). Cell viability after 24 h treatment was assessed using ApoTox-Glo triplex assay (Promega) according to the manufacturer's protocol. At least three independent dose–response experiments with each concentration tested in triplicate were performed for each cell line.

A549 = assay: MTT cytotoxicity GI50, A549; type: cell-based
Method: as §1

Panc-1 = assay: MTT cytotoxicity GI50, Panc-1; type: cell-based
Method: as §1

HT29 = assay: MTT cytotoxicity GI50, HT29; type: cell-based
Method: as §1

H1299 = assay: MTT cytotoxicity GI50, H1299; type: cell-based
Method: as §1

HCT116 = assay: MTT cytotoxicity GI50, HCT116; type: cell-based, human
Method: as §1

PDI = PDI (Homo sapiens, UniProt P07237); assay: PDI activity assay (PDI-catalysed reduction of insulin); type: biochemical; set-up: made in house; conditions: for Fold selectivity: GSTO1 versus PDI enzyme inhibition; for IC50: inhibition of PDI-catalyzed reduction of insulin
PDI, sequence (P07237 18-508, species assumed): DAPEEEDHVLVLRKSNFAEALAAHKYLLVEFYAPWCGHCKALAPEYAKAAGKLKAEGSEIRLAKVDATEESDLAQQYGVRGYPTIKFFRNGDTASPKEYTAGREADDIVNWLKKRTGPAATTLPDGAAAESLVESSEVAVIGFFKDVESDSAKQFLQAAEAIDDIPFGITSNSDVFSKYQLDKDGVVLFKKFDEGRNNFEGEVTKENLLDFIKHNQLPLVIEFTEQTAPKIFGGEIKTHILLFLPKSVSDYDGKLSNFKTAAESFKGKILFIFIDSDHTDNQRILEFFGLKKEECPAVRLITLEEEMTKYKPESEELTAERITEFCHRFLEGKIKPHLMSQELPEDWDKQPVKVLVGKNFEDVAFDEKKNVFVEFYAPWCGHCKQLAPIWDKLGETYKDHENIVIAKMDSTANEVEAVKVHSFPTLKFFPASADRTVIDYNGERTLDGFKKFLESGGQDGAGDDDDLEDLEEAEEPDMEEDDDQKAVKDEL
Method: The reduction reaction was catalysed by PDI at room temperature, and the resulting aggregation of reduced insulin B chains was measured at 620 nm. % PDI activity was calculated from absorbance values at T=0 and 80 min.

GSTO1 [1] = target: T1, GSTO1 (Homo sapiens, UniProt P78417); assay: GSTO1 substrate assay (reduction of 4-NPG)
T1 sequence (P78417 1-241): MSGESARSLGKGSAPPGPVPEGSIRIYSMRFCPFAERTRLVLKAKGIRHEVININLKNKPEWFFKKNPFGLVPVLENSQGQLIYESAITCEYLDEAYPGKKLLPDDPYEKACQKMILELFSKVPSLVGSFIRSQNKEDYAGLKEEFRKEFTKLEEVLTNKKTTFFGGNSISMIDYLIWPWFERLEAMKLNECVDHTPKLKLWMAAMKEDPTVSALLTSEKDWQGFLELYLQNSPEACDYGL
Method: For activity screening, we adapted a GSTO1 substrate assay that relies on the quantification of the reduction of S-(4-nitrophenacyl)glutathione (4-NPG), a GSTO1-specific substrate[17], using recombinant human GSTO1 in a high-throughput screening format.
Enzyme activity was measured by monitoring the reduction of 4-NPG to 4-nitroacetophenone by GSTO1.

GSTO1 [2] = target: T1, GSTO1; assay: Duration of inhibition (washout, CMFDA labelling of GSTO1 in HCT116 cells); conditions: 2 h treatment
Method: At indicated times after washout, CMFDA (500 nM) was added for 1 h and the cells were lysed and processed for in-gel fluorescence binding assay, to assess recovery of CMFDA binding to GSTO1.

GSTO1 [3] = target: T1, GSTO1; assay: Pre-incubation and dilution assay; type: biochemical; set-up: inferred from pQE30 vector and Ni-NTA purification; made in house; host or cells: Escherichia coli M15 (Rep4); conditions: for mode of GSTO1 enzyme inhibition: pre-incubation and dilution
Method: 4-NPG (20 μl, 0.5 mM) was added and decrease in absorbance was monitored. % Recovery of enzyme activity was determined using a DMSO control.

endogenous GSTO1 = target: T2, endogenous GSTO1 (Homo sapiens, UniProt P78417); assay: In-gel fluorescence competitive CMFDA binding assay, endogenous GSTO1 in HCT116
T2 sequence (P78417 1-241): T1 sequence (P78417 1-241)
Description: (§2) Primary screening of GSTO inhibitors was based on competitive inhibition of CMFDA binding to endogenous GSTO. Briefly, HCT116^p53+/+ cells (4 × 10^4 per well) were coated in a 12-well plate. […] Cells were then washed with PBS and lysed using Cell Lytic M buffer (Sigma). […] Gels were immediately scanned on a Typhoon variable mode imager (Amersham Bioscience). Quantification of fluorescent band intensity was done using Image Quant 5.2 software.

H460 = assay: MTT cytotoxicity GI50, H460; type: cell-based
Method: as §1

NCIADR Res = assay: MTT cytotoxicity GI50, NCI-ADR/Res; type: cell-based
Description: Colon cancer cell line HCT116 was generously provided by Dr Bert Vogelstein, Johns Hopkins Medical Institutions, Baltimore, MD. Pancreatic cancer cell line Panc-1 was obtained from Dr Alan Epstein, University of Southern California. All other cell lines were purchased from the American Type Culture Collection (Manassas, VA). MDA-MB-435 cell line was used in the GSTO1 knockdown experiment as it had high GSTO1 expression (Supplementary Fig. 17). We also tested active compounds in NCI-ADR/Res cell line since GSTO1 is implicated in drug resistance. Cell lines were cultured in RPMI 1640 or […] supplemented with 10% fetal bovine serum at 37 °C in a humidified atmosphere of 5% CO2. All cell lines were maintained in culture under 30 passages and tested regularly for Mycoplasma contamination using PlasmoTest (InvivoGen, San Diego, CA, USA).
as §1

GSTO1 [4] = target: T1, GSTO1; assay: In-gel fluorescence competitive CMFDA binding assay, recombinant GSTO1; conditions: inhibition of CMFDA binding
Description: as §2

HCT116p53+/+ cell = assay: MTT cell proliferation at single concentration; type: cell-based, human
Outline: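 MTT read-out (formazan in DMSO, 570 nm) after 3 h dye incubation at 37 °C, following 72 h inhibitor treatment of overnight-attached cells. Triplicate concentrations; ≥3 independent dose–response runs per line.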

## COc1cc(/C=C/C(=O)N2CCC=CC2=O)cc(OC)c1OC [Piperlongumine]
BxPC3
  GI50: 6.8 ± 1.4 µM
A549
  GI50: 16.9 µM
Panc-1; Panc-1
  GI50: 4900 ± 800 nM
HT29
  GI50: 5.1 ± 0.5 µM
H1299; H1299
  GI50: 2900 nM
HCT116
  GI50: 2600 ± 200 nM

## CCOc1ccccc1-n1c(C(C)N2CCN(C(=O)COc3ccc(Cl)cc3)CC2)nc2ccccc2c1=O (centres unmarked) [Erastin]
BxPC3; Homo sapiens, BXPC-3
  GI50: > 50 µM
A549; Homo sapiens
  GI50: > 50 µM
Panc-1; Homo sapiens, PANC-1
  GI50: 500 ± 200 nM
HT29; Homo sapiens, HT-29
  GI50: 42.8 ± 3.8 µM
H1299; Homo sapiens, NCI-H1299
  GI50: 1200 nM
HCT116; Homo sapiens, HCT-116
  GI50: 15900 ± 700 nM

## O=C(CCl)Nc1cc(F)c(F)cc1NC(=O)CCl [4a]
PDI
  Fold selectivity: 1.9
  IC50: 6.04 ± 0.62 µM
GSTO1 [1]; GSTO1 Substrate assay IC50, mean ± SEM, at least 3 independent experiments
  IC50: 3.14 ± 0.27 µM
GSTO1 [1]; Substrate assay IC50, pilot screening
  IC50: 3.1 µM
GSTO1 [2]
  duration of inhibition of CMFDA labelling of GSTO1 after washout: up to 24 h
GSTO1 [3]
  mode of GSTO1 enzyme inhibition: irreversible
GSTO1 [3]; pre-incubation then 40-fold dilution
  recovery of GSTO1 enzyme activity after pre-incubation and dilution: not recovered
HT29; Homo sapiens, HT-29
  GI50: 5.6 ± 0.5 µM
Endogenous GSTO1
  IC50: 3900 nM
H460; Homo sapiens, NCI-H460
  GI50: 3.5 µM
other
  melting point: 142 to 143 °C
HCT116; Homo sapiens, HCT-116
  GI50: 2400 ± 200 nM
NCIADR Res; Homo sapiens, NCI/ADR-RES
  GI50: 2200 nM

## CN(c1ccccc1)S(=O)(=O)c1cccc(NC(=O)CCl)c1 [C1-28]
PDI
  Fold selectivity: 19.5
  IC50: 1.25 ± 0.23 µM
GSTO1 [1]; 10 µM
  GSTO substrate assay % Inhibition at 10 µM: 87.6%
GSTO1 [1]; read-out: GSTO substrate assay IC50, cluster screening tables
  IC50: 0.064 µM
GSTO1 [3]
  mode of GSTO1 enzyme inhibition: slow-turnover substrate
GSTO1 [4]
  GSTO binding assay (% Inhibition at 10 µM) Recombinant: 71.5%
HT29
  GI50: 2.7 ± 0.5 µM
Endogenous GSTO1; 10 µM, inhibition of CMFDA binding, HCT116
  GSTO binding assay (% Inhibition at 10 µM) Endogenous: 57.2%
Endogenous GSTO1; read-out: Competitive Binding assay Endogenous GSTO1 IC50
  IC50: 8 nM
H460; H460
  GI50: 4.5 µM
HCT116p53+/+ cell
  % Inhibition of HCT116p53+/+ cell proliferation at 10 µM: 94.4%
HCT116
  GI50: 2200 ± 700 nM
NCIADR Res
  GI50: 3800 nM
